According to patent US20230121721A1, “MONOACYLGLYCEROL LIPASE INHIBITORS” (STICHTING HET NEDERLANDS KANKER INSTITUUT - ANTONI VAN …, priority 2020, published 2023):

Molecular target: T1, hMAGL (MAGL-overexpressing membrane preparations from transiently transfected HEK293T cells) (Homo sapiens, UniProt Q99685)
T1 construct: expressed in transfected cells; host or cells: HEK293T (transient transfection), membrane preparations
T1 sequence (Q99685 1-303): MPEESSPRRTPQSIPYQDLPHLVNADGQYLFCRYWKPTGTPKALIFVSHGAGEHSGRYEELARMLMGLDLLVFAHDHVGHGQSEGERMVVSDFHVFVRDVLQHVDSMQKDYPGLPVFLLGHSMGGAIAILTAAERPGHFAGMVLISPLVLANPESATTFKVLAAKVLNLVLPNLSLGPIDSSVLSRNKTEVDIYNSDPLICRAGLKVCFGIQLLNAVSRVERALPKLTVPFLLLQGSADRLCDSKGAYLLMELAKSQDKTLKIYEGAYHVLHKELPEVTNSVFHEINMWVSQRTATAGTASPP
Experiment: MAGL activity assay (2-AG hydrolysis, glycerol coupled to Amplifu Red fluorescence)
Format: biochemical
Details: hMAGL-overexpressing HEK293T membranes, 25 μM 2-AG substrate, 20 min. inhibitor incubation
Source text: The MAGL activity assay is based on the production of glycerol from 2-arachidonoylglycerol (2-AG) hydrolysis by MAGL-overexpressing membrane preparations from transiently transfected HEK293T cells, as previously reported in van der Wel T et al., “A natural substrate-based fluorescence assay for inhibitor screening on diacylglycerol lipase”, J Lipid Res., 2015, 56(4), 927-35. The produced glycerol is coupled to the oxidation of commercially available Amplifu™ Red (Sigma-Aldrich Chemie N.V., Zwijndrecht, Netherlands) via a multi-enzyme cascade, resulting in a fluorescent signal from the dye resorufin.
Standard assays were performed in HEMNB buffer (50 mM HEPES pH 7.4, 1 mM EDTA, 5 mM MgCl2, 100 mM NaCl, 0.5% (w/v) BSA) in black, flat bottom 96-wells plates. Final protein concentration of membrane preparations from overexpressing hMAGL HEK293T cells was 1.5 μg/mL (0.3 μg per well). Inhibitors were added from 40× concentrated DMSO stocks. […] Final assay concentrations: 0.2 U/mL GK, GPO and HRP, 0.125 mM ATP, 10 μM Amplifu™ Red, 25 μM 2-AG, 5% DMSO, 0.5% ACN in a total volume of 200 μL.
For IC50 determination, the MAGL-overexpressing membranes were incubated with different inhibitor concentrations. Slopes of corrected fluorescence in time were determined in the linear interval of t=10 to t=35 min and then scaled to the corrected positive control of hMAGL-overexpressing membranes treated with vehicle (DMSO) as a 100% activity reference point. The data was exported to GraphPad Prism 5.0 and analysed in a non-linear dose-response analysis with variable slope.

| Compound | IC50 |
| --- | --- |
| CCOC(=O)CSc1ccc(C(=O)N2CCN(c3cccc(C)c3)[C@@H](C)C2)cc1[N+](=O)[O-] [Example 5, Ethyl (S)-2-((4-(3-methyl-4-(m-tolyl)piperazine-1-carbonyl)-2-nitrophenyl)thio)acetate] | > 10000 nM |
| CCOC(=O)CS(=O)(=O)c1ccc(C(=O)N2CCN(c3cccc(C)c3)[C@@H](C)C2)cc1[N+](=O)[O-] [Example 6, Ethyl (S)-2-((4-(3-methyl-4-(m-tolyl)piperazine-1-carbonyl)-2-nitrophenyl)sulfonyl)acetate] | > 10000 nM |
| CCOC(=O)C[S+]([O-])c1ccc(C(=O)N2CCN(c3cccc(C)c3)[C@@H](C)C2)cc1 (stereo partly drawn) [Example 7, Ethyl 2-((4-((S)-3-methyl-4-(m-tolyl)piperazine-1-carbonyl)phenyl)sulfinyl)acetate] | 5620 nM |
| CCOC(=O)C[S+]([O-])c1ccc(C(=O)N2CCN(c3cccc(F)c3)CC2)cc1[N+](=O)[O-] (stereo not shown) [Example 9, Ethyl 2-((4-(4-(3-fluorophenyl)piperazine-1-carbonyl)-2-nitrophenyl)sulfinyl)acetate] | 631 nM |
| CCOC(=O)C[S+]([O-])c1ccc(C(=O)N2CCN(c3ccc(C(F)(F)F)cc3)CC2)cc1[N+](=O)[O-] (stereo not shown) [Example 16, Ethyl 2-((2-nitro-4-(4-(4-(trifluoromethyl)phenyl)piperazine-1-carbonyl)phenyl)sulfinyl)acetate] | 589 nM |
| CCOC(=O)C[S+]([O-])c1ccc(C(=O)N2CCN(c3cccc([N+](=O)[O-])c3)CC2)cc1[N+](=O)[O-] (stereo not shown) [Example 19, Ethyl 2-((2-nitro-4-(4-(3-nitrophenyl)piperazine-1-carbonyl)phenyl)sulfinyl)acetate] | 2570 nM |
| CCOC(=O)C[S+]([O-])c1ccc(C(=O)N2CCN(c3cccc(-c4ccccc4)c3)CC2)cc1[N+](=O)[O-] (stereo not shown) [Example 20, Ethyl 2-((4-(4-([1,1′-biphenyl]-3-yl)piperazine-1-carbonyl)-2-nitrophenyl)sulfinyl)acetate] | 1350 nM |
| CCOC(=O)C[S+]([O-])c1ccc(C(=O)N2CCN(c3ccc(Cl)c(Cl)c3)CC2)cc1[N+](=O)[O-] (stereo not shown) [Example 22, Ethyl 2-((4-(4-(3,4-dichlorophenyl)piperazine-1-carbonyl)-2-nitrophenyl)sulfinyl)acetate] | 2570 nM |
| CCOC(=O)C[S+]([O-])c1ccc(C(=O)N2CCN(c3ccc(Cl)cc3Cl)CC2)cc1[N+](=O)[O-] (stereo not shown) [Example 23, Ethyl 2-((4-(4-(2,4-dichlorophenyl)piperazine-1-carbonyl)-2-nitrophenyl)sulfinyl)acetate] | 1950 nM |
| CCOC(=O)C[S+]([O-])c1ccc(C(=O)N2CCN(c3c(Cl)cccc3Cl)CC2)cc1[N+](=O)[O-] (stereo not shown) [Example 24, Ethyl 2-((4-(4-(2,6-dichlorophenyl)piperazine-1-carbonyl)-2-nitrophenyl)sulfinyl)acetate] | 1820 nM |
| CCN(C)C(=O)C[S+]([O-])c1ccc(C(=O)N2CCN(c3cccc(Cl)c3)[C@H](C)C2)cc1[N+](=O)[O-] (stereo partly drawn) [Example 33, 2-((4-((R)-4-(3-Chlorophenyl)-3-methylpiperazine-1-carbonyl)-2-nitrophenyl)sulfinyl)-N-ethyl-N-methylacetamide] | > 10000 nM |

The next molecules have a lower IC50 than those just listed; values first:

| IC50 | Compound |
| --- | --- |
| 282 nM | CCOC(=O)C[S+]([O-])c1c(F)cc(C(=O)N2CCN(c3cccc(Cl)c3)[C@H](C)C2)cc1F (stereo partly drawn) [Example 106, Ethyl 2-((4-((R)-4-(3-chlorophenyl)-3-methylpiperazine-1-carbonyl)-2,6-difluorophenyl)sulfinyl)acetate] |
| 269 nM | CCOC(=O)C[S+]([O-])c1ccc(C(=O)N2CCN(c3cccc(C)c3)[C@@H](C)C2)cc1[N+](=O)[O-] (stereo partly drawn) [Example 2, Ethyl 2-((4-((S)-3-methyl-4-(m-tolyl)piperazine-1-carbonyl)-2-nitrophenyl)sulfinyl)acetate] |
| 200 nM | CCOC(=O)C[S+]([O-])c1ccc(C(=O)N2CCN(c3cccc(C(F)(F)F)c3)[C@@H](C)C2)cc1[N+](=O)[O-] (stereo partly drawn) [Example 31, Ethyl 2-((4-((S)-3-methyl-4-(3-(trifluoromethyl)phenyl)piperazine-1-carbonyl)-2-nitrophenyl)sulfinyl)acetate] |
| 195 nM | CCOC(=O)C[S+]([O-])c1ccc(C(=O)N2CCN(c3cccc(C)c3)[C@H](C)C2)cc1[N+](=O)[O-] (stereo partly drawn) [Example 3, Ethyl 2-((4-((R)-3-methyl-4-(m-tolyl)piperazine-1-carbonyl)-2-nitrophenyl)sulfinyl)acetate] |
| 155 nM | CCOC(=O)C[S+]([O-])c1ccc(C(=O)N2CCN(c3cccc(F)c3)[C@@H](C)C2)cc1[N+](=O)[O-] (stereo partly drawn) [Example 25, Ethyl 2-((4-((S)-4-(3-fluorophenyl)-3-methylpiperazine-1-carbonyl)-2-nitrophenyl)sulfinyl)acetate] |
| 115 nM | CCOC(=O)C[S+]([O-])c1ccc(C(=O)N2CCN(c3cccc(C(F)(F)F)c3)[C@H](C)C2)cc1[N+](=O)[O-] (stereo partly drawn) [Example 30, Ethyl 2-((4-((R)-3-methyl-4-(3-(trifluoromethyl)phenyl)piperazine-1-carbonyl)-2-nitrophenyl)sulfinyl)acetate] |
| 57.5 nM | CCOC(=O)C[S+]([O-])c1ccc(C(=O)N2CCN(c3cccc(Cl)c3)CC2(C)C)cc1F (stereo not shown) [Example 48, Ethyl 2-((4-(4-(3-chlorophenyl)-2,2-dimethylpiperazine-1-carbonyl)-2-fluorophenyl)sulfinyl)acetate] |
| 46.8 nM | CCOC(=O)C[S+]([O-])c1ccc(C(=O)N2CCN(c3cccc(Cl)c3)C(C)(C)C2)cc1F (stereo not shown) [Example 47, Ethyl 2-((4-(4-(3-chlorophenyl)-3,3-dimethylpiperazine-1-carbonyl)-2-fluorophenyl)sulfinyl)acetate] |
| 34.7 nM | C[C@@H]1CN(C(=O)c2ccc([S+]([O-])CC(=O)OCCCO)c([N+](=O)[O-])c2)CCN1c1cccc(Cl)c1 (stereo partly drawn) [Example 41, 3-Hydroxypropyl 2-((4-((R)-4-(3-chlorophenyl)-3-methylpiperazine-1-carbonyl)-2-nitrophenyl)sulfinyl)acetate] |
| 27.5 nM | CCOC(=O)C[S+]([O-])c1ccc(C(=O)N2CCN(c3cccc(Cl)c3)CC2C)cc1F (stereo not shown) [Example 44, Ethyl 2-((4-(4-(3-chlorophenyl)-2-methylpiperazine-1-carbonyl)-2-fluorophenyl)sulfinyl)acetate] |
| 14.8 nM | CCOC(=O)C[S+]([O-])c1ccc(C(=O)N2CCN(c3cccc(Cl)c3)[C@H](C)[C@H]2C)cc1C(F)(F)F (mixture of isomers) [Example 107, (±) Ethyl 2-((4-(4-(3-chlorophenyl)-trans-2,3-dimethylpiperazine-1-carbonyl)-2-(trifluoromethyl)phenyl)sulfinyl)acetate] |
